The values below come from US20260001893A1, “SMALL MOLECULE MODULATORS OF STAT6” (Gilead Sciences, Inc., priority 2024, published 2026).

The assay has as its system Eotaxin-3 (CCL26) release in human whole blood stimulated with IL-4. In words: Human whole blood eotaxin-3 assay (IL-4 stimulated eotaxin-3 release). In kind it is cell-based. The following applies: Homo sapiens, 48 h, human whole blood stimulated with recombinant human IL-4, 48 h, geometric mean; for EC50: inhibition of eotaxin-3 release, given for test compounds with >80% Emax. The protocol:
Human Whole Blood Eotaxin-3 Assay
This was a human whole blood assay using recombinant human Interleukin 4 to stimulate the blood and measuring the ability of the test compounds to inhibit eotaxin-3 release. The biological activities of the test compounds have been tested in human whole blood stimulated with IL-4 measuring Eotaxin-3 release. The test compounds were added to 384 well clear flat-bottom plate in a 4-fold serial dilution in triplicates using a liquid handler. Human whole blood stabilized in lithium-heparin tubes was added in a volume of 65 μL per well, resulting in a final DMSO concentration of 0.5%. The plate is incubated for 2 h at 37° C. under 5% CO2/95% air. Subsequently, 5 μL of recombinant human IL-4 (R&D Systems, cat #204-ILB) was added to the wells to a final concentration of […]. The plate was incubated for 48 h at 37° C. under 5% CO2/95% air. The plate was spun down for 10 minutes at 500×g and 20 μL supernatant was harvested and transferred to a 384 well v-bottom plate using a liquid handler and stored at −20° C. until further analysis. 10 μL supernatant was used to measure the level of Eotaxin-3 (CCL26) using Human Eotaxin-3 MSD kit from Mesocsale (Cat #K251UEK-4). The assay was performed according to the manufacture instructions.
The data from the human whole blood eotaxin-3 assay is shown below for Examples 1ab3, 1ab6, 1d23, and 1d4 (where the effect in % is plotted against the test concentration in M on a log-scale).

Take `Cc1cc(C(=O)N(C)C)cc(F)c1C1=CCN(Cc2cc3c(-n4ccc(N)c(C)c4=O)ccnc3n2C)CC1` [Example 1m87, 4-(1-((4-(4-amino-3-methyl-2-oxopyridin-1 (2H)-yl)-1-methyl-1H-pyrrolo[2,3-b]pyridin-2-yl)methyl)-1,2,3,6-tetrahydropyridin-4-yl)-3-fluoro-N,N,5-trimethylbenzamide]: the EC50 (usually the concentration needed to bring the measured effect to its halfway point) came out at 4.55 nM.

Consider `CNc1ccn(-c2ccnc3c2cc(CN2CC=C(c4c(C)cc(C(=O)N(C)C)cc4F)CC2)n3C)c(=O)n1` [Example 1m88, 3-fluoro-N,N,5-trimethyl-4-(1-((1-methyl-4-(4-(methylamino)-2-oxopyrimidin-1 (2H)-yl)-1H-pyrrolo[2,3-b]pyridin-2-yl)methyl)-1,2,3,6-tetrahydropyridin-4-yl)benzamide], for which the EC50 worked out at 4.8 nM. On the same count and under the same terms, then `[2H]C([2H])([2H])N(C(=O)c1ccc(C2CCN([C@@H](C)c3cc4c(-n5ccc6[nH]ncc6c5=O)ccnc4n3C)CC2)cc1)C([2H])([2H])[2H]` [Example 1m89, (S)—N,N-bis(methyl-d3)-4-(1-(1-(1-methyl-4-(4-oxo-1,4-dihydro-5H-pyrazolo[4,3-c]pyridin-5-yl)-1H-pyrrolo[2,3-b]pyridin-2-yl)ethyl)piperidin-4-yl)benzamide], with 5.87 nM; and `CNc1ccn(-c2ccnc3c2cc(CN2CC=C(c4c(F)cc(C(=O)N(C)C)cc4F)CC2)n3C)c(=O)c1` [Example 1m90, 3,5-difluoro-N,N-dimethyl-4-(1-((1-methyl-4-(4-(methylamino)-2-oxopyridin-1 (2H)-yl)-1H-pyrrolo[2,3-b]pyridin-2-yl)methyl)-1,2,3,6-tetrahydropyridin-4-yl)benzamide], with 28.8 nM; and `CNc1ccn(-c2ccnc3c2cc(CN2CCC(c4c(F)cc(C(=O)N(C)C)cc4F)CC2)n3C)c(=O)c1` [Example 1m91, 3,5-difluoro-N,N-dimethyl-4-(1-((1-methyl-4-(4-(methylamino)-2-oxopyridin-1 (2H)-yl)-1H-pyrrolo[2,3-b]pyridin-2-yl)methyl)piperidin-4-yl)benzamide], with 45.5 nM. Still for that read-out and setting: the result for `[2H]C([2H])([2H])N(C(=O)c1cc(C)c(C2=CCN([C@@H](C)c3cc4c(-n5ccc(N)cc5=O)ccnc4n3C)CC2)c(F)c1)C([2H])([2H])[2H]` [Example 1m93, (S)-4-(1-(1-(4-(4-amino-2-oxopyridin-1 (2H)-yl)-1-methyl-1H-pyrrolo[2,3-b]pyridin-2-yl)ethyl)-1,2,3,6-tetrahydropyridin-4-yl)-3-fluoro-5-methyl-N,N-bis(methyl-d3)benzamide] reads 3.76 nM; that for `[2H]C([2H])([2H])N(C(=O)c1cc(C)c(C2=CCN(Cc3cc4c(-n5ccc(N)c(C)c5=O)ccnc4n3C)CC2)c(F)c1)C([2H])([2H])[2H]` [Example 1m94, 4-(1-((4-(4-amino-3-methyl-2-oxopyridin-1 (2H)-yl)-1-methyl-1H-pyrrolo[2,3-b]-pyridin-2-yl)methyl)-1,2,3,6-tetrahydropyridin-4-yl)-3-fluoro-5-methyl-N,N-bis(methyl-d3)benzamide], 6.65 nM; that for `CNc1ccn(-c2ccnc3c2cc(CN2CCC(c4c(F)cc(C(=O)N(C)C)cc4F)CC2)n3C)c(=O)n1` [Example 1m95, 3,5-difluoro-N,N-dimethyl-4-(1-((1-methyl-4-(4-(methylamino)-2-oxopyrimidin-1 (2H)-yl)-1H-pyrrolo[2,3-b]pyridin-2-yl)methyl)piperidin-4-yl)benzamide], 44.6 nM. On the same count and under the same terms, then `[2H]C([2H])([2H])N(C(=O)c1cc(C)c(C2=CCN(Cc3cc4c(-n5ccc(NC)nc5=O)ccnc4n3C)CC2)c(F)c1)C([2H])([2H])[2H]` [Example 1m96, 3-fluoro-5-methyl-N,N-bis(methyl-d3)-4-(1-((1-methyl-4-(4-(methylamino)-2-oxopyrimidin-1 (2H)-yl)-1H-pyrrolo[2,3-b]pyridin-2-yl)methyl)-1,2,3,6-tetrahydropyridin-4-yl)benzamide], with 3.52 nM. For `[2H]C([2H])([2H])N(C(=O)c1ccc(C2CCN([C@@H](C)c3cc4c(-n5c(F)cc(NC)cc5=O)ccnc4n3C)CC2)cc1)C([2H])([2H])[2H]` [Example 1m97, 4-(1-((1S)-1-(4-(6-fluoro-4-(methylamino)-2-oxopyridin-1 (2H)-yl)-1-methyl-1H-pyrrolo[2,3-b]pyridin-2-yl)ethyl)piperidin-4-yl)-N,N-bis(methyl-d3)benzamide], the Emax (as a rule, the maximal effect, on the per cent scale that the assay sets) (given for test compounds with <80% Emax) lay within 10 to 20%.

In the case of `[2H]C([2H])([2H])N(C(=O)c1cc(F)c(C2=CCN(Cc3cc4c(-n5ccc(NC)cc5=O)ccnc4n3C)CC2)c(F)c1)C([2H])([2H])[2H]` [Example 1m98, 3,5-difluoro-N,N-bis(methyl-d3)-4-(1-((1-methyl-4-(4-(methylamino)-2-oxopyridin-1 (2H)-yl)-1H-pyrrolo[2,3-b]pyridin-2-yl)methyl)-1,2,3,6-tetrahydropyridin-4-yl)benzamide], the EC50 stood at 22.4 nM. The same measure, in the same setting: then `Cc1cc(C(=O)N(C)C)cc(F)c1C1=CCN(Cc2cc3c(-n4ccc5c(c4=O)CCN5)ccnc3n2C)CC1` [Example 1m101, 3-fluoro-N,N,5-trimethyl-4-(1-((1-methyl-4-(4-oxo-1,2,3,4-tetrahydro-5H-pyrrolo[3,2-c]pyridin-5-yl)-1H-pyrrolo[2,3-b]pyridin-2-yl)methyl)-1,2,3,6-tetrahydropyridin-4-yl)benzamide], with 3.02 nM; and `[2H]C([2H])([2H])N(C(=O)c1cc(F)c(C2CCN(Cc3cc4c(-n5ccc(NC)cc5=O)ccnc4n3C)CC2)c(F)c1)C([2H])([2H])[2H]` [Example 1m102, 3,5-difluoro-N,N-bis(methyl-d3)-4-(1-((1-methyl-4-(4-(methylamino)-2-oxopyridin-1 (2H)-yl)-1H-pyrrolo[2,3-b]pyridin-2-yl)methyl)piperidin-4-yl)benzamide], with 23.4 nM; and `Cc1cc(C(=O)N(C)C)cc(F)c1C1CCN(Cc2cc3c(-n4ccc5c(c4=O)CCN5)ccnc3n2C)CC1` [Example 1m103, 3-fluoro-N,N,5-trimethyl-4-(1-((1-methyl-4-(4-oxo-1,2,3,4-tetrahydro-5H-pyrrolo[3,2-c]pyridin-5-yl)-1H-pyrrolo[2,3-b]pyridin-2-yl)methyl)piperidin-4-yl)benzamide], with 27.1 nM. The same measure, in the same setting: the result for `CNc1ccn(-c2ccnc3c2cc(CN2CC=C(c4c(C)cc(C(=O)N(C)C)cc4F)CC2)n3C)c(=O)c1C` [Example 1m104, 3-fluoro-N,N,5-trimethyl-4-(1-((1-methyl-4-(3-methyl-4-(methylamino)-2-oxopyridin-1 (2H)-yl)-1H-pyrrolo[2,3-b]pyridin-2-yl)methyl)-1,2,3,6-tetrahydropyridin-4-yl)benzamide] reads 156 nM. On the same count and under the same terms, the result for `CNc1ccn(-c2ccnc3c2cc([C@H](C)N2CC=C(c4c(C)cc(C(=O)N(C)C)cc4F)CC2)n3C)c(=O)n1` [Example 1m106, (S)-3-fluoro-N,N,5-trimethyl-4-(1-(1-(1-methyl-4-(4-(methylamino)-2-oxopyrimidin-1 (2H)-yl)-1H-pyrrolo[2,3-b]pyridin-2-yl)ethyl)-1,2,3,6-tetrahydropyridin-4-yl)benzamide] reads 2.96 nM; that for `CN(C)C(=O)c1cc(F)c(C2=CCN(Cc3cc4c(-n5ccc6c(c5=O)CCN6)ccnc4n3C)CC2)c(F)c1` [Example 1m107, 3,5-difluoro-N,N-dimethyl-4-(1-((1-methyl-4-(4-oxo-1,2,3,4-tetrahydro-5H-pyrrolo[3,2-c]pyridin-5-yl)-1H-pyrrolo[2,3-b]pyridin-2-yl)methyl)-1,2,3,6-tetrahydropyridin-4-yl)benzamide], 24.2 nM; that for `CNc1ccn(-c2ccnc3c2cc([C@@H](C)N2CCC(c4c(C)cc(C(=O)N(C)C)cc4F)CC2)n3C)c(=O)c1` [Example 1m108, (R)-3-fluoro-N,N,5-trimethyl-4-(1-(1-(1-methyl-4-(4-(methylamino)-2-oxopyridin-1 (2H)-yl)-1H-pyrrolo[2,3-b]pyridin-2-yl)ethyl)piperidin-4-yl)benzamide], 317 nM. As for `CNc1ccn(-c2ccnc3c2cc([C@H](C)N2CCC(c4c(C)cc(C(=O)N(C)C)cc4F)CC2)n3C)c(=O)c1` [Example 1m109, (S)-3-fluoro-N,N,5-trimethyl-4-(1-(1-(1-methyl-4-(4-(methylamino)-2-oxopyridin-1 (2H)-yl)-1H-pyrrolo[2,3-b]pyridin-2-yl)ethyl)piperidin-4-yl)benzamide], the EC50 was found to be 10.8 nM. As for `CN(C)C(=O)c1cc(F)c(C2CCN(Cc3cc4c(-n5ccc6c(c5=O)CCN6)ccnc4n3C)CC2)c(F)c1` [Example 1m110, 3,5-difluoro-N,N-dimethyl-4-(1-((1-methyl-4-(4-oxo-1,2,3,4-tetrahydro-5H-pyrrolo[3,2-c]pyridin-5-yl)-1H-pyrrolo[2,3-b]pyridin-2-yl)methyl)piperidin-4-yl)benzamide], the EC50 worked out at 15.1 nM. On the same count and under the same terms, the result for `Cc1cc(C(=O)N(C)C)cc(F)c1C1=CCN([C@@H](C)c2cc3c(-n4cc(F)c(N)cc4=O)ccnc3n2C)CC1` [Example 1m111, (S)-4-(1-(1-(4-(4-amino-5-fluoro-2-oxopyridin-1 (2H)-yl)-1-methyl-1H-pyrrolo[2,3-b]pyridin-2-yl)ethyl)-1,2,3,6-tetrahydropyridin-4-yl)-3-fluoro-N,N,5-trimethylbenzamide] reads 6.98 nM.
